Counter-ions that a name gives are not always drawn.
How the values were obtained:
[1] = molecular target: T1, human inducible NO-synthase (Homo sapiens, UniProt P35228); assay: Measurement of inducible NO-synthase activity ([3H]arginine conversion); type: biochemical; details: crude cytosolic fraction containing human inducible NO-synthase; 0.1 μM arginine; 45 to 60 min at 37° C.; read-out: Inhibition of iNOS activity [measured as −logIC50 (mol/l)] (converted)
T1 construct: host or cells: crude cytosolic fraction
Protocol: The assay is performed in 96-well microtiter F-plates (Greiner, Frickenhausen, FRG) in a total volume of 100 μl in the presence of 100 nM calmodulin, 226 μM CaCl2, 477 μM MgCl2, 5 μM flavin-adenine-dinucleotide (FAD), 5 μM flavin mononucleotide (FMN), 0.1 mM NADPH, 7 mM glutathione, 10 μM BH4 and 100 mM HEPES pH 7.2. Arginine concentrations are 0.1 μM for enzyme inhibition experiments. 150000 dpm of [^3H]arginine are added to the assay mixture. Enzyme reaction is started by the addition of 4 μg of a crude cytosolic fraction containing human inducible NO-synthase and the reaction mixture is incubated for 45 to 60 min at 37° C. Enzyme reaction is stopped by adding 10 μl of 2M MESbuffer pH 5,0. […] of the incubation mixture are transferred into a MADP N65 filtration microtiter plate (Millipore, Eschborn, FRG) containing already 50 μl of AG-50W-X8 cation exchange resin (Biorad, München, FRG). […] Scintillation plates are counted in a szintillation counter.
For the measurement of inducible NO-synthaseinhibiting potencies of compounds increasing concentrations of inhibitors were included into the incubation mixture. IC50-values were calculated from the percent inhibition at given concentrations by nonlinear least square fitting.

Compound: COc1ccnc(CC(C)c2nc3cccnc3[nH]2)c1 (racemic) [Example 1, (R,S)-2-[3-(4-Methoxypyridin-2-yl)prop-2-yl]-3H-imidazo[4,5-b]pyridine hydrochloride]
- IC50 [1]: 70.8 nM

Compound: COc1ccnc(CC(C)c2nc3cccnc3[nH]2)c1 (racemic) (as salt: hydrochloride) [Example 1, (R,S)-2-[3-(4-Methoxypyridin-2-yl)prop-2-yl]-3H-imidazo[4,5-b]pyridine hydrochloride]
- melting point: 61 to 64 °C
